Key:
LRRK2 WT [1] = molecular target: T1, LRRK2 WT (Homo sapiens, UniProt Q5S007); assay: In vitro kinase assay: LRRK2 autophosphorylation; assay type: biochemical; conditions: for LRRK2 autophosphorylation Average ± SEM: compound 16 μM, phosphorylation normalized to absence of compound, mean ± S.E.M. of three experiments
LRRK2 WT [2] = molecular target: T1, LRRK2 WT; assay: In vitro kinase assay: LRRK2-mediated MBP phosphorylation; assay type: biochemical; conditions: for MBP phosphorylation Average ± SEM: compound 16 μM, 30° C., 15 min, normalized to absence of compound, mean ± S.E.M. of three experiments

T1 sequence (Q5S007 whole entry): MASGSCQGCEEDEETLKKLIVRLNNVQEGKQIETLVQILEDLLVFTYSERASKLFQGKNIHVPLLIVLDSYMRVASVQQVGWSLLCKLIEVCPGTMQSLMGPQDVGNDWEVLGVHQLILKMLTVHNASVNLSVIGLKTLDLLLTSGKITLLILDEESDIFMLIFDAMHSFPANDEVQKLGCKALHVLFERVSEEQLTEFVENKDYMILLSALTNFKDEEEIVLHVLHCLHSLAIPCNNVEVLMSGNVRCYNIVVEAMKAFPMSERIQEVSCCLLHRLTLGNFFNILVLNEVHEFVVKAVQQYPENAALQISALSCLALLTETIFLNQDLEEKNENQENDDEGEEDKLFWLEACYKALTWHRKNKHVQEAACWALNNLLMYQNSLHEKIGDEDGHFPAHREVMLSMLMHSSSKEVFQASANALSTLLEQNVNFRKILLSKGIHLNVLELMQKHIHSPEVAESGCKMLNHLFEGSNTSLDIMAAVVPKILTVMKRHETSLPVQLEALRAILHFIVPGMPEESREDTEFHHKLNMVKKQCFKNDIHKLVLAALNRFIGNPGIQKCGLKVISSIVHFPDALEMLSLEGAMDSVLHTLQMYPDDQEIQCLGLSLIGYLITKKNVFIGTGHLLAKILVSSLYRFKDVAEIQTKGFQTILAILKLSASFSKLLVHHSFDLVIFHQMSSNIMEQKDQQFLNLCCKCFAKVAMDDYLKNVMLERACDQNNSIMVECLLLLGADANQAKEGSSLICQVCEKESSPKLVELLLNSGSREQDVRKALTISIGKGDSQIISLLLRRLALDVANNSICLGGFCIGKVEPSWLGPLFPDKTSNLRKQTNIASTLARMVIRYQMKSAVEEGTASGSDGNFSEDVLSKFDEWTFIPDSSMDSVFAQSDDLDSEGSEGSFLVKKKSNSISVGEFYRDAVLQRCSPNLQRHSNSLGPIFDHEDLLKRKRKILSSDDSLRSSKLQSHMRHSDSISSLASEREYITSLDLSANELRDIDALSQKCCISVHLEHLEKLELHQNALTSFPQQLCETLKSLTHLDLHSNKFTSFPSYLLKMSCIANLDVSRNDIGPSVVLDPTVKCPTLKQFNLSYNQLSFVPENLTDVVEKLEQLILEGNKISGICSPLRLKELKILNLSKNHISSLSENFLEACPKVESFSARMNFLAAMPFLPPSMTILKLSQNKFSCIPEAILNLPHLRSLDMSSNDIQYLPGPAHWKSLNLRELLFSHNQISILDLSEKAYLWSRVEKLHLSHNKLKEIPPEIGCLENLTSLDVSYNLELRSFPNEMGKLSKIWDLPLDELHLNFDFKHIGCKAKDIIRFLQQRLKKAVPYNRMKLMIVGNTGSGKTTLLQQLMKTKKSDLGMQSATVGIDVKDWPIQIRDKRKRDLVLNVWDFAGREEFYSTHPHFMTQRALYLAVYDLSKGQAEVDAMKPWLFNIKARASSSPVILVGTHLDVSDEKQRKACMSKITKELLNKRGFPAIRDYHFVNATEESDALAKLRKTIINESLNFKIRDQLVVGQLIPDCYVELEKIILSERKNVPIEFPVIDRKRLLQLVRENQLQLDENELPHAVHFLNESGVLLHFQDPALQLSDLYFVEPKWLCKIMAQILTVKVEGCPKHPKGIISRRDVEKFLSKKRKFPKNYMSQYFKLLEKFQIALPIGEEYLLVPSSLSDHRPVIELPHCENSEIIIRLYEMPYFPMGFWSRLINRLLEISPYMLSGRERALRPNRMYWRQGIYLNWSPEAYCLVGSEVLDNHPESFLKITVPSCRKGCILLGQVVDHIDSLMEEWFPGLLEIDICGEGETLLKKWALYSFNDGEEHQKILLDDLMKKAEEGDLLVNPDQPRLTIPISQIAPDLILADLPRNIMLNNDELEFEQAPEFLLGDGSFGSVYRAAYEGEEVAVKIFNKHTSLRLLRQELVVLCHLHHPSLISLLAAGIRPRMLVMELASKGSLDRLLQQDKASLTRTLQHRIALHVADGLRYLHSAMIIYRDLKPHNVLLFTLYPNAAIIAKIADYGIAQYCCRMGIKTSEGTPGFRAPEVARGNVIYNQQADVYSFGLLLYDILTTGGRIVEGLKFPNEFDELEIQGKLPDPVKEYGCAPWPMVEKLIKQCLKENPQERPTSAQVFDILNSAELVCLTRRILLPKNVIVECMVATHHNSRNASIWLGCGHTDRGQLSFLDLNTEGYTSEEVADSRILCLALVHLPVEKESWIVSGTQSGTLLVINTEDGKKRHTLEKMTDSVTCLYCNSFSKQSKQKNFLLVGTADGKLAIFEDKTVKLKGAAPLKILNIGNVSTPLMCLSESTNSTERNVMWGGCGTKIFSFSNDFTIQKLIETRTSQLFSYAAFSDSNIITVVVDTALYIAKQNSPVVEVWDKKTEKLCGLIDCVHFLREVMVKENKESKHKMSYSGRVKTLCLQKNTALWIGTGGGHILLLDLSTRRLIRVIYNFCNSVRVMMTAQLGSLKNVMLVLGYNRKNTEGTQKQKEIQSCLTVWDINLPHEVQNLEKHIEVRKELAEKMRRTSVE

Row | SMILES | LRRK2 autophosphorylation Average ± SEM (LRRK2 WT [1]) | MBP phosphorylation Average ± SEM (LRRK2 WT [2]) | effect on LRRK2 autophosphorylation (LRRK2 WT [1]; screen at 16 μM) | effect on LRRK2-mediated phosphorylation of MBP (LRRK2 WT [2]; screen at 16 μM)
1 | CC1CNCCN1S(=O)(=O)c1cccc2cnccc12 (centres unmarked) [Inhibitor 4] | 80.3 ± 8.2 % of control | 88.0 ± 26.4 % of control |  | 
2 | C/C(O)=C(\C#N)C(=O)Nc1cc(Br)ccc1Br [Inhibitor 50] | 66.8 ± 14.2 % of control | 138.8 ± 53.5 % of control |  | 
3 | COC[C@H]1OC(=O)c2coc3c2[C@@]1(C)C1=C(C3=O)[C@@H]2CCC(=O)[C@@]2(C)C[C@H]1OC(C)=O [Inhibitor 30] | 83.0 ± 23.6 % of control | 66.8 ± 29.1 % of control |  | 
4 | CC1(C)[C@H](C=C(Cl)Cl)[C@@H]1C(=O)O[C@H](C#N)c1cccc(Oc2ccccc2)c1 [Inhibitor 80] | 66.4 ± 17.4 % of control | 76.9 ± 13.7 % of control |  | 
5 | N#C/C(=C\c1ccc(O)c(O)c1)C(N)=S [Inhibitor 14] | 80.5 ± 32.2 % of control | 110.5 ± 29.3 % of control |  | 
6 | CC(C)(C)c1cc(C=C(C#N)C#N)cc(C(C)(C)C)c1O [Inhibitor 20] | 109.0 ± 19.7 % of control | 120.7 ± 29.4 % of control |  | 
7 | CC[C@@H](CO)Nc1nc(NCc2ccccc2)c2ncn(C(C)C)c2n1 [Inhibitor 48] | 69.4 ± 30.1 % of control | 100.1 ± 41.5 % of control |  | 
8 | CC(=O)c1c(O)c(C)c(O)c(Cc2c(O)c3c(c(C(=O)/C=C/c4ccccc4)c2O)OC(C)(C)C=C3)c1O [Inhibitor 58] | 28.1 ± 39.8 % of control | 147.2 ± 64.3 % of control |  | 
9 | Oc1ccc(-c2nc(-c3ccc(F)cc3)c(-c3ccncc3)[nH]2)cc1 [Inhibitor 51] | 64.9 ± 20.9 % of control | 125.5 ± 52.6 % of control |  | 
10 | CC(C)n1cnc2c(NCc3ccccc3)nc(NCCO)nc21 [Inhibitor 45] | 56.2 ± 30.8 % of control | 111.7 ± 69.7 % of control |  | 
11 | Cc1cc(O)c2c(=O)c3c(O)cc(O)c4c5c(O)cc(O)c6c(=O)c7c(O)cc(C)c8c1c2c(c34)c(c78)c65 [Inhibitor 32] | 57.4 ± 30.1 % of control | 160.9 ± 12 % of control |  | 
12 | O=P(O)(O)Cc1ccccc1 [Inhibitor 74] | 68.3 ± 1.85 % of control | 121.8 ± 23.6 % of control |  | 
13 | CN[C@@H]1C[C@H]2O[C@@](C)([C@@H]1OC)n1c3ccccc3c3c4c(c5c6ccccc6n2c5c31)C(=O)NC4 [Inhibitor 6, Staurosporine, reference compound] | 1.9 ± 1.0 % of control | 9.2 ± 6.4 % of control | substantially inhibited | substantially inhibited
14 | CC1(C)[C@H](C=C(Br)Br)[C@@H]1C(=O)O[C@H](C#N)c1cccc(Oc2ccccc2)c1 [Inhibitor 81] | 73.9 ± 2.2 % of control | 99.6 ± 23.1 % of control |  | 
15 | C#COC1(C)[C@@H]2CC[C@@H](O2)C1(C)C(=O)O (some centres unmarked) [Inhibitor 71] | 75.9 ± 2.1 % of control | 99.8 ± 3.4 % of control |  | 
16 | CN([C@@H](Cc1ccc(OS(=O)(=O)c2cccc3cnccc23)cc1)C(=O)N1CCN(c2ccccc2)CC1)S(=O)(=O)c1cccc2cnccc12 [Inhibitor 40] | 83.1 ± 22.1 % of control | 125.2 ± 68.8 % of control |  | 
17 | Cc1ccc(NC(=O)c2cccc(N(C)C)c2)cc1NC(=O)c1ccc(O)cc1 [Inhibitor 53] | 89.2 ± 2.7 % of control | 152.6 ± 38.0 % of control |  | 
18 | O=S(=O)(NCCNC/C=C/c1ccc(Br)cc1)c1cccc2cnccc12 [Inhibitor 35] | 90.8 ± 2.5 % of control | 85.3 ± 54.2 % of control |  | 
19 | C[C@@]12C(=O)OC(=O)[C@]1(C)[C@H]1CC[C@@H]2O1 [Inhibitor 72] | 69.1 ± 8.8 % of control | 109.7 ± 22.4 % of control |  | 
20 | CC(C)C(C(=O)OC(C#N)c1cccc(Oc2ccccc2)c1)c1ccc(Cl)cc1 (centres unmarked) [Inhibitor 82] | 80.4 ± 13.0 % of control | 61.5 ± 54.0 % of control |  | 
21 | COc1cc2ncnc(Nc3cccc(Cl)c3)c2cc1OC [Inhibitor 18] | 63.7 ± 28.0 % of control | 110.0 ± 44.0 % of control |  | 
22 | C#COC1C(C(=O)O)[C@H]2CC[C@@H]1O2 (some centres unmarked) [Inhibitor 73] | 78.8 ± 5.1 % of control | 128.9 ± 9.4 % of control |  | 

The next lines start with results.

Row | LRRK2 autophosphorylation Average ± SEM (LRRK2 WT [1]) | MBP phosphorylation Average ± SEM (LRRK2 WT [2]) | SMILES | effect on LRRK2 autophosphorylation (LRRK2 WT [1]; screen at 16 μM) | effect on LRRK2-mediated phosphorylation of MBP (LRRK2 WT [2]; screen at 16 μM)
23 | 61.2 ± 9.6 % of control | 131.7 ± 34.2 % of control | COc1cc2ncc(-c3ccccc3)nc2cc1OC [Inhibitor 55] |  | 
24 | 68.6 ± 35.5 % of control | 118.2 ± 51.8 % of control | N#CC(C#N)=Cc1ccc(O)cc1 [Inhibitor 83] |  | 
25 | 69.8 ± 12.0 % of control | 76.7 ± 4.5 % of control | CC(C)(C)c1cc(/C=C(\C#N)C(N)=S)cc(C(C)(C)C)c1O [Inhibitor 28] |  | 
26 | 82.0 ± 4.2 % of control | 110.3 ± 28.4 % of control | O=C1Nc2ccccc2/C1=C1\Nc2ccccc2C1=O [Inhibitor 69] |  | 
27 | 81.7 ± 27.1 % of control | 81.5 ± 17.6 % of control | COc1cc(/C=C(\C#N)C(N)=O)cc(CSc2nc3ccccc3s2)c1O [Inhibitor 8] |  | 
28 | 84.3 ± 21.1 % of control | 65.2 ± 35.5 % of control | O=C(O)c1cc(N(Cc2ccccc2O)Cc2cc(O)ccc2O)ccc1O [Inhibitor 9] |  | 
29 | 69.4 ± 37.9 % of control | 63.1 ± 66.7 % of control | O=c1c(-c2ccc(O)cc2)coc2cc(O)cc(O)c12 [Inhibitor 59] |  | 
30 | 120.8 ± 54.1 % of control | 138.2 ± 36.9 % of control | O=P(O)(O)CCc1ccc2ccccc2c1O [Inhibitor 21] |  | 
31 | 39.2 ± 39.9 % of control | 70.1 ± 40.5 % of control | O=c1c(O)c(-c2ccc(O)c(O)c2)oc2cc(O)cc(O)c12 [Inhibitor 62, Quercetin dihydrate] |  | 
32 | 75.1 ± 12.8 % of control | 124.8 ± 23.5 % of control | Cc1ccc(S(=O)(=O)/C=C/C#N)cc1 [Inhibitor 65] |  | 
33 | 62.8 ± 15.8 % of control | 65.9 ± 31.4 % of control | N#CC(C#N)=Cc1cc(O)c(O)c(O)c1 [Inhibitor 12] |  | 
34 | 81.0 ± 31.9 % of control | 141.0 ± 50.8 % of control | O=c1c(-c2ccc(O)cc2)coc2cc(O)ccc12 [Inhibitor 60] |  | 
35 | 73.0 ± 5.3 % of control | 93.9 ± 11.5 % of control | COC(=O)/C=C/c1cc(O)ccc1O [Inhibitor 61] |  | 
36 | 80.9 ± 3.0 % of control | 50.2 ± 29.4 % of control | CNCCNS(=O)(=O)c1cccc2cnccc12 [Inhibitor 36] |  | 
37 | 75.0 ± 2.3 % of control | 138.8 ± 33.9 % of control | Cl.c1ccc(C2CN3CCSC3=N2)cc1 (centres unmarked) [Inhibitor 79] |  | 
38 | 87 ± 38.6 % of control | 93.0 ± 17.8 % of control | Oc1cc(O)cc(/C=C/c2ccc(O)c(O)c2)c1 [Inhibitor 23] |  | 
39 | 103.0 ± 4.4 % of control | 148.9 ± 71.4 % of control | O=C(O)c1cc(NCc2cc(O)ccc2O)ccc1O [Inhibitor 39, 2-hydroxy-5-(2,5-dihydroxybenzyl-amino) benzoic acid] |  | 
40 | 74.6 ± 1.7 % of control | 133.2 ± 17.6 % of control | Cl.c1ccc([C@H]2CN3CCSC3=N2)cc1 [Inhibitor 78] |  | 
41 | 79.3 ± 3.6 % of control | 75.5 ± 3.1 % of control | O=c1cc(N2CCOCC2)oc2c(-c3ccccc3)cccc12 [Inhibitor 29] |  | 
42 | 84.3 ± 21.9 % of control | 120.4 ± 64.7 % of control | O=S(=O)(c1cccc2cnccc12)N1CCCNCC1 [Inhibitor 38] |  | 
43 | 63.9 ± 12.0 % of control | 124.1 ± 37.2 % of control | CC(C)CC(NC(=O)[C@H](CCC(=O)O)NC(=O)CNC(=O)c1ccc(/C=C/C(=O)O)cc1)C(N)=O (some centres unmarked) [Inhibitor 84] |  | 
44 | 66.9 ± 2.0 % of control | 55.5 ± 56.5 % of control | N#CC(C#N)=Cc1ccc(O)c(O)c1 [Inhibitor 11] |  | 
45 | 53.8 ± 34.5 % of control | 58.3 ± 22.9 % of control | NCCNS(=O)(=O)c1cccc2cnccc12 [Inhibitor 5] |  | 
46 | 70.7 ± 4.2 % of control | 123.7 ± 26.3 % of control | C=CC(=O)c1ccc2ccccc2c1 [Inhibitor 64] |  | 
47 | 89 ± 54.9 % of control | 116.0 ± 9.8 % of control | N#CC(C#N)=Cc1cc(O)c(O)c([N+](=O)[O-])c1 [Inhibitor 17] |  | 
48 | 81.1 ± 17.3 % of control | 106.7 ± 25.4 % of control | N=C(N)NCCNS(=O)(=O)c1cccc2cnccc12 [Inhibitor 37] |  | 

Reference: US20150018301A1, “LRRK-2-Mediated Neuronal Toxicity” (THE JOHNS HOPKINS UNIVERSITY, priority 2009, published 2015)
